According to PubChem BioAssay AID2060485 (Molecular Pharmacology Branch, DTP, NCI, 2025):
Values joined by “and” are separate entries in the source; they are usually repeats but may differ in a detail not shown here. Identical values can stand only once.

Tested on: A375 multi-cell spheroids with HUVEC/MSC, viability
Experiment: Anticancer human tumor A375 cell line growth inhibition [GQUAD];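 further: spheroids exposed to compounds for seven days before readout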
Conditions: for viability, T/C: stronger effect = lower value
Source text: DNA G-quadruplex Stabilizer Agents in Combinations in Complex Spheroids
A high-throughput screen of multi-cell type tumor spheroids was designed to identify active combinations of DNA G-quadruplex stabilizer agents and targeted small molecules. Complex spheroids include a stromal component modeled by human endothelial cells (HUVEC) and fibroblasts modeled by human mesenchymal stem cells (MSCs). The concentration ranges selected for each drug and investigational agent were based upon clinically achievable concentrations if the clinical Cmax of the agent was known.
Compounds. The drugs and investigational agents: pidnarulex (CX-5461; NSC782164), APTO-253 (NSC789042), BRACO-19 (NSC847499), peposertib (NSC802822), ceralasertib (NSC780249), elimusertib (NSC800525), camonsertib (NSC841442), AZD-1390 (NSC803789), olaparib (NSC753686), talazoparib (NSC767125), ART-558 (NSC835418), sotorasib (NSC818433), MRTX-1133 (NSC836407), SN-38 (NSC673596), topotecan (NSC609699), etoposide (NSC141540), doxorubicin (NSC123127), gemcitabine (NSC613327), 5-fluorouracil (NSC19893), paclitaxel (NSC125973), vemurafenib (NSC761431), panobinostat (NSC761190), R-306465 (JNJ-16241199; NSC773264), adavosertib (NSC754352), TP-3654 (NSC805149), carboplatin (NSC241240), KSQ-4279 (NSC840948), and staurosporine (NSC755774) were obtained from the National Cancer Institute (NCI) Developmental Therapeutics Program Chemical Repository (34). The FDA-approved anticancer drug set is available from the NCI Developmental Therapeutics Program. […] The stock solutions were prepared in dimethyl sulfoxide (DMSO, Sigma-Aldrich, St. Louis, MO, cat. D2650) at 800-fold the tested concentration and stored at -70 degrees C prior to their use. All drugs and investigational agents were tested over a range starting from a high concentration at or near the clinical Cmax and decreasing in half-log increments. If the clinical Cmax for an agent had not been determined, the highest concentration tested was 10 microM.
2.3 Cell Culture. All cells were maintained in an incubator at 37 degrees C and 5% CO2 with 95% humidity. The PDC lines were cultured according to standard operating procedures established by the NCI PDMR. All PDCs were thawed and cultured in Matrigel-coated flasks prepared with a working solution of 1X Ham's F-12 nutrient mix, without supplementation (Invitrogen, cat. 11765054), 100 U/mL penicillin-streptomycin (Invitrogen, cat. 15140122), and 2.5% Matrigel (Corning Inc., cat. 354248) for the first three passages. The 857933-349-R-J2-PDC line was cultured in 6C/Colon 1B media, which includes advanced DMEM/F-12 (Thermo Fisher Scientific, cat. 12634028), 10 mM HEPES (Thermo Fisher Scientific, cat. 15630080), 1X GlutaMAX supplement (Thermo Fisher Scientific, cat. 35050061), 0.1 mg/mL primocin (InvivoGen, cat. ant-pm-2), 10% defined fetal bovine serum, heat inactivated (HyClone Laboratories Inc., cat. SH30070.03HI), 50% L-WRN conditioned media (ATCC, cat. CRL-3276), 1.25 mM N-Acetyl-L-cysteine (Sigma-Aldrich, cat. A9165), 10 mM nicotinamide (Sigma-Aldrich, cat. N0636), 1X B-27 supplement (Thermo Fisher Scientific, cat. 17504044), 1X N-2 supplement (Thermo Fisher Scientific, cat. 17502048), 10 microM Y-27632 dihydrochloride (Tocris Bioscience, cat. 1254), and 50 ng/mL human EGF recombinant protein (Thermo Fisher Scientific, cat. PHG0311). The 485176-168-R4-J1-PDC line was cultured in Panc media, which includes all 6C/Colon 1B media components plus 100 ng/mL human FGF-10 (Thermo Fisher Scientific, cat. 100-26), 500 nM SB-431542 (Selleckchem, cat. S1067), and gastrin (Tocris, cat. 3006).
[…]

O=C(NO)c1cnc(N2CCN(S(=O)(=O)c3ccc4ccccc4c3)CC2)nc1
viability, T/C (compound 0.0316 µM): 107% and 124% and 114%
viability, T/C (compound 0.1 µM): 109% and 110% and 112%
viability, T/C (compound 0.316 µM): 5.8% and 7.04% and 12.4%
viability, T/C (compound 1 µM): 0.3% and 0.23%
viability, T/C (compound 3.16 µM): 0.3% and 0.39% and 0.16%
viability, T/C (compound 10 µM): 0.32% and 0.35% and 0.19%
IC50 (curve of compound): 0.192 µM and 0.195 µM and 0.205 µM

Nc1ccn(C2OC(CO)C(O)C2(F)F)c(=O)n1 (stereo not given)
viability, T/C (compound 0.0316 µM): 17.8% and 12.3% and 18.4%
viability, T/C (compound 0.1 µM): 9.82% and 7.07% and 9.32%
viability, T/C (compound 0.316 µM): 9.4% and 5.69% and 8.76%
viability, T/C (compound 1 µM): 10.4% and 6.8% and 10.7%
viability, T/C (compound 3.16 µM): 11.5% and 7.2% and 10.4%
viability, T/C (compound 10 µM): 9.06% and 6.96% and 7.8%
IC50 (curve of compound): < 0.0316 µM

CC1COCCN1c1cc(C2(S(C)(=N)=O)CC2)nc(-c2ccnc3[nH]ccc23)n1 (stereo not given)
viability, T/C (compound 0.0316 µM): 103% and 102%
viability, T/C (compound 0.1 µM): 97.6% and 102%
viability, T/C (compound 0.316 µM): 104% and 98.5%
viability, T/C (compound 1 µM): 109% and 103%
viability, T/C (compound 3.16 µM): 54.7% and 63.4%
viability, T/C (compound 10 µM): 42.4% and 36.1%
IC50 (curve of compound): 4.9 µM and 5.56 µM

COc1ccc([C@@H](O)c2cc(-c3ncnc4cc(N5CCOCC5)ccc34)c(F)cc2Cl)nn1 + Cc1[nH]c2ccc(F)cc2c1-c1nc2c3cccnc3c3ncccc3c2[nH]1
IC50 (curve of first compound, second compound 0.0316 µM): > 10 µM
IC50 (curve of first compound, second compound 0.1 µM): > 10 µM
IC50 (curve of first compound, second compound 0.316 µM): > 10 µM
IC50 (curve of first compound, second compound 1 µM): > 10 µM
IC50 (curve of first compound, second compound 3.16 µM): > 10 µM
IC50 (curve of first compound, second compound 10 µM): > 10 µM
viability, T/C (second compound 0.0316 µM, first compound 0.0316 µM): 105%
viability, T/C (second compound 0.0316 µM, first compound 0.1 µM): 108%
viability, T/C (second compound 0.0316 µM, first compound 0.316 µM): 103%
viability, T/C (second compound 0.0316 µM, first compound 1 µM): 126%
viability, T/C (second compound 0.0316 µM, first compound 3.16 µM): 100%
viability, T/C (second compound 0.0316 µM, first compound 10 µM): 77.5%
viability, T/C (second compound 0.1 µM, first compound 0.0316 µM): 106%
viability, T/C (second compound 0.1 µM, first compound 0.1 µM): 102%
viability, T/C (second compound 0.1 µM, first compound 0.316 µM): 105%
viability, T/C (second compound 0.1 µM, first compound 1 µM): 112%
viability, T/C (second compound 0.1 µM, first compound 3.16 µM): 96.6%
viability, T/C (second compound 0.1 µM, first compound 10 µM): 85.6%
viability, T/C (second compound 0.316 µM, first compound 0.0316 µM): 103%
viability, T/C (second compound 0.316 µM, first compound 0.1 µM): 112%
viability, T/C (second compound 0.316 µM, first compound 0.316 µM): 105%
viability, T/C (second compound 0.316 µM, first compound 1 µM): 110%
viability, T/C (second compound 0.316 µM, first compound 3.16 µM): 95.3%
viability, T/C (second compound 0.316 µM, first compound 10 µM): 87.9%
viability, T/C (second compound 1 µM, first compound 0.0316 µM): 106%
viability, T/C (second compound 1 µM, first compound 0.1 µM): 112%
viability, T/C (second compound 1 µM, first compound 0.316 µM): 109%
viability, T/C (second compound 1 µM, first compound 1 µM): 113%
viability, T/C (second compound 1 µM, first compound 3.16 µM): 98.2%
viability, T/C (second compound 1 µM, first compound 10 µM): 68.1%
viability, T/C (second compound 3.16 µM, first compound 0.0316 µM): 101%
viability, T/C (second compound 3.16 µM, first compound 0.1 µM): 96%
viability, T/C (second compound 3.16 µM, first compound 0.316 µM): 101%
viability, T/C (second compound 3.16 µM, first compound 1 µM): 79.1%
viability, T/C (second compound 3.16 µM, first compound 3.16 µM): 77.2%
viability, T/C (second compound 3.16 µM, first compound 10 µM): 50.4%
viability, T/C (second compound 10 µM, first compound 0.0316 µM): 113%
viability, T/C (second compound 10 µM, first compound 0.1 µM): 107%
viability, T/C (second compound 10 µM, first compound 0.316 µM): 122%
viability, T/C (second compound 10 µM, first compound 1 µM): 97.2%
viability, T/C (second compound 10 µM, first compound 3.16 µM): 78.2%
viability, T/C (second compound 10 µM, first compound 10 µM): 56.3%

CCc1c2c(nc3ccc(O)cc13)-c1cc3c(c(=O)n1C2)COC(=O)[C@]3(O)CC
viability, T/C (compound 0.000999 µM): 45.1% and 41.4% and 38.3%
viability, T/C (compound 0.00316 µM): 17.9% and 15.3% and 17.3%
viability, T/C (compound 0.00999 µM): 15.6% and 10.1% and 12.2%
viability, T/C (compound 0.0316 µM): 18% and 14.4% and 15%
viability, T/C (compound 0.0999 µM): 4.97% and 4.55% and 5.97%
viability, T/C (compound 0.316 µM): 0.56% and 1.25% and 0.77%
IC50 (curve of compound): < 0.000999 µM
